Experimental findings from patent US5300672A (priority 1992, dated 1994) are described below.

A word on the MIC: it is the lowest concentration found to suppress growth.

Structures are written as SMILES. Where two headings read alike, the source gives them in different places. Where only a bound is given, the exact number is not on record here.

The subject of one test is Pseudomonas fluorescens. Briefly: Alternate Minimum Inhibitory Concentrations Test (Table 4), Ps.fl. In kind it is cell-based. The conditions noted are these: Table 4 alternate test, 250 ppm to 0.8 ppm in TSB, 72 hours, 30° C.; for MIC: Pseudomonas fluorescens, read-out: MIC Ps.fl. As to the method:
The compounds of Examples 1-8, 12-26, 28-33, 36-37, 39-42, 44-109, 111-114, and 116-120 were subjected also to the following alternate biocidal activity test procedures with the results as indicated in Table 4.
The MIC test measures the viability of Pseudomonas fluorescens inoculum in TSB when exposed for 72 hours to varying concentrations of test compound.
A 125 μl aliquot of 10,000 ppm test compound in acetone was added to 4.88 ml of TSB to provide a 250 ppm solution. From this solution, 100 μL was transferred to the first row of two microtiter plate columns. Both replicates and five additional compounds were all serially diluted 1:1 to a final concentration of 0.8 ppm in TSB.
Inoculation was accomplished by diluting a 24 hr Ps fl culture, four mls per 36 mls of phosphate buffer solution. A Dynatech autoinoculator was used to transfer 1.5 μl of this cell suspension to the microtiter plates. The plates were incubated at 30° C. for 3 days before the lowest concentration at which no growth occurs was recorded in the database.

Test [1] relates to Puccinia recondita (f. sp. tritici Races PKB and PLD). Briefly: whole plant or invertebrate. The conditions noted are these: for pest or weed control at 100 ppm / pest or weed control at 200 ppm: Puccinia recondita, 240 h, read-out: % Control WLR. In kind it is in vivo.
For test [2], the system named is Erysiphe graminis (f. sp. tritici). Briefly: whole plant or invertebrate. In kind it is in vivo. The conditions noted are these: for pest or weed control at 100 ppm / pest or weed control at 200 ppm: Blumeria graminis, read-out: % Control WPM.
Another test relates to Phytophthora infestans. Briefly: whole plant or invertebrate. In kind it is in vivo. As to conditions: for pest or weed control at 100 ppm / pest or weed control at 6 ppm / pest or weed control at 200 ppm: Phytophthora infestans, in Solanum lycopersicum, 96 h; for pest or weed control at 200 ppm: read-out: % Control TLB, application rate 200 ppm.
The test system of test [3] is Pellicularia filamentosa (f. sp. sasiki). As to the kind of experiment: whole plant or invertebrate. As to conditions: for pest or weed control at 100 ppm / pest or weed control at 200 ppm: 120 h, read-out: % Control RSB. In kind it is in vivo.
For another test, the system named is Piricularia oryzae. As to the kind of experiment: whole plant or invertebrate. As to conditions: for pest or weed control at 100 ppm: read-out: % Control RB, application rate 100 ppm. In kind it is in vivo.
The mark [4] stands for this setting: read-out: % Control TLB, application rate 100 ppm.
[5] abbreviates: Pyricularia oryzae, read-out: % Control RB, application rate 25 ppm.

Consider `CCCCCCCCNC(=O)/C=C\SC(=O)c1ccccc1` [Compound 1, N-octyl-cis-3-(benzoylthio)acrylamide], for which the minimal inhibitory concentration (MIC) in the test on Pseudomonas fluorescens was over 250 mg/L. The pest or weed control at 100 ppm in test [1] came to 0%; in test [2] it was 0%; in the test with Phytophthora infestans (setting [4]) it was 100%; in test [3], 0%; in the test on Piricularia oryzae (Pyricularia oryzae), 0%.
As to `CCCCCCCCNC(=O)/C=C\SC(=O)CC(=O)OCC` [Compound 2, N-octyl-cis-3-(ethylmalonylthio)acrylamide], in the test with Pseudomonas fluorescens, the MIC is over 250 mg/L. Besides, the pest or weed control at 100 ppm is 0% in test [1], 0% in test [2], 90% in the test with Phytophthora infestans (read-out: % Control TLB) and 0% in test [3]. In the test with Piricularia oryzae (Pyricularia oryzae, read-out: % Control RB, application rate 6 ppm), the pest or weed control at 6 ppm was 50%.
`CCCCCCCCNC(=O)/C=C\SC(=O)c1cccc(OC)c1` [Compound 8, N-octyl-cis-3-[(3-methoxybenzoyl)thio]acrylamide]: the MIC in the test with Pseudomonas fluorescens was over 250 mg/L. In addition, the pest or weed control at 100 ppm in test [1] worked out at 0%; in test [2] it was 0%; with Phytophthora infestans (read-out: % Control TLB) it was 80%; in test [3], 0%; with Piricularia oryzae (Pyricularia oryzae), 80%.
For `CCCCCCCCNC(=O)/C=C\SC/C=C/c1ccccc1` [Compound 13, N-octyl-cis-3-[(trans-3-phenylprop-2-ene)thio]acrylamide], in the test with Pseudomonas fluorescens, the MIC was over 250 mg/L. Moreover, the pest or weed control at 100 ppm came out at 0% in test [1]; 0% in test [2]; 80% in the test with Phytophthora infestans (read-out: % Control TLB); 0% in test [3]; 0% in the test with Piricularia oryzae (Pyricularia oryzae).
Regarding `CCCCCCCCNC(=O)/C=C\SC(=O)c1cc2ccccc2s1` [Compound 19, N-octyl-cis-3-[(2-benzo(6)thiophene)carbonylthio]acrylamide], the minimal inhibitory concentration (MIC) in the test with Pseudomonas fluorescens was over 250 mg/L. The pest or weed control at 100 ppm in test [1] turned out to be 0%; in test [2], 0%; in the test on Phytophthora infestans (read-out: % Control TLB) it was 90%; in test [3] it was 0%; in the test with Piricularia oryzae (Pyricularia oryzae), 0%.
Turning to `CCCCCCCCNC(=O)/C=C\SC(=O)c1c(Cl)cccc1Cl` [Compound 21, N-octyl-cis-3-[(2,6-dichlorobenzoyl)thio]acrylamide], in the test on Pseudomonas fluorescens, the MIC is over 250 mg/L. Further, the pest or weed control at 100 ppm in test [1] was found to be 0%; in test [2], 0%; with Phytophthora infestans (read-out: % Control TLB), 80%; in test [3], 0%; in the test on Piricularia oryzae (Pyricularia oryzae), 0%.
For `CCCCCCCCNC(=O)/C=C\SC(=O)CCCCCCC` [Compound 23, N-octyl-cis-3-(octanoylthio)acrylamide], the MIC in the test on Pseudomonas fluorescens is over 250 mg/L. In addition, the pest or weed control at 100 ppm in test [1] stood at 0%; in test [2], 0%; with Phytophthora infestans (setting [4]), 0%; in test [3] it was 80%; with Piricularia oryzae (Pyricularia oryzae), 0%.
With `CCCCCCCCNC(=O)/C=C\SC(=O)C(CC)CCCC` (stereo not drawn) [Compound 27, N-octyl-cis-3-[(2-ethylhexanoyl)thio]acrylamide], the pest or weed control at 100 ppm turned out to be 0% in test [1]; 0% in test [2]; 90% with Phytophthora infestans (read-out: % Control TLB); 0% in test [3]; 0% in the test on Piricularia oryzae (Pyricularia oryzae).
For the molecule `CCCCCCCCNC(=O)/C=C\SC(=O)c1c(F)cc(F)cc1F` [Compound 28, N-octyl-cis-3-[(2,4,6-trifluorobenzoyl)thio]acrylamide], in the test with Pseudomonas fluorescens, the MIC is over 250 mg/L. Also, the pest or weed control at 100 ppm in test [1] was 0%; in test [2], 0%; with Phytophthora infestans (setting [4]), 0%; in test [3] it was 0%; in the test on Piricularia oryzae (Pyricularia oryzae), 90%.
With `CCCCCCCCNC(=O)/C=C\SC(=O)CCl` [Compound 31, N-octyl-cis-3-(chloroacetylthio)acrylamide], in the test on Pseudomonas fluorescens, the minimal inhibitory concentration (MIC) is over 250 mg/L. Further, the pest or weed control at 100 ppm in test [1] was 0%; in test [2], 0%; in the test on Phytophthora infestans (read-out: % Control TLB), 80%; in test [3], 0%; with Piricularia oryzae (Pyricularia oryzae), 0%.
In the case of `CCCCCCCCNC(=O)/C=C\SC(=O)N1CCCC1` [Compound 32, N-octyl-cis-3-[(1-pyrrolidine)carbonylthio]acrylamide], the minimum inhibitory concentration (MIC) in the test with Pseudomonas fluorescens was over 250 mg/L. Further, the pest or weed control at 100 ppm turned out to be 0% in test [1]; 0% in test [2]; 80% in the test on Phytophthora infestans (read-out: % Control TLB); 0% in test [3]; 0% with Piricularia oryzae (Pyricularia oryzae).
On to `CCCCCCCCNC(=O)/C=C\SCC(=O)OCC` [Compound 34, N-octyl-cis-3-(ethoxycarbonylmethanethio)acrylamide], for which the pest or weed control at 100 ppm in test [1] was 0%; in test [2], 0%; with Phytophthora infestans (read-out: % Control TLB), 80%; in test [3], 90%; with Piricularia oryzae (Pyricularia oryzae) it was 0%.
For the molecule `CCCCCCCCNC(=O)/C=C\SC(=O)c1ccccc1CCl` [Compound 35, N-octyl-cis-3-[(2-(chloromethyl)benzoyl)thio]acrylamide], the pest or weed control at 100 ppm stood at 0% in test [1]; 85% in test [2]; 0% with Phytophthora infestans (setting [4]); 0% in test [3]; 80% in the test on Piricularia oryzae (Pyricularia oryzae).
With `CCCCCCCCNC(=O)/C=C\SC(=O)c1cccc(Br)c1` [Compound 36, N-octyl-cis-3-[(3-bromobenzoyl)thio]acrylamide], the MIC with Pseudomonas fluorescens is over 250 mg/L. Also, the pest or weed control at 100 ppm (in test [1]; in test [2]; with Phytophthora infestans (setting [4]); in test [3]) was 0% each time. Further, the pest or weed control at 25 ppm in the test on Piricularia oryzae (Pyricularia oryzae, read-out: % Control RB) came to 90%.
Consider `CCCCCCCCNC(=O)/C=C\SC(=O)C(Cl)Cl` [Compound 37, N-octyl-cis-3-(dichloroacetylthio)acrylamide], for which the minimal inhibitory concentration (MIC) with Pseudomonas fluorescens was over 250 mg/L. Moreover, the pest or weed control at 100 ppm in test [1], in test [2] and in test [3] was 0% in each case. The pest or weed control at 6 ppm in the test on Phytophthora infestans (read-out: % Control TLB) came to 90%. Moreover, the pest or weed control at 25 ppm in the test with Piricularia oryzae (setting [5]) is 80%.
Take `CCCCCCCCNC(=O)/C=C\SC(C)C(=O)OC` (stereo not drawn) [Compound 38]: the pest or weed control at 100 ppm in test [1], in test [2] and in test [3] was 0% each time. Besides, in the test with Phytophthora infestans (read-out: % Control TLB), the pest or weed control at 6 ppm was determined as 80%. In addition, the pest or weed control at 25 ppm in the test on Piricularia oryzae (setting [5]) amounted to 80%.
As for `CCCCCCCCNC(=O)C=CSC(CO)COc1ccc(OC)cc1` (stereo not drawn) [Compound 39, N-octyl-cis-3-[(1-hydroxy-3-(4-methoxyphenoxy)-2-propane)thio]acrylamide], the “MIC Ps.fl” value in the test on Pseudomonas fluorescens is listed as over 250 Ppm. The “% Control WLR” value in test [1] (in vivo) came to 0 % Control. Moreover, the “% Control WPM” value in test [2] (in vivo) is 0 % Control. For the same molecule, the “% Control TLB” value in the test with Phytophthora infestans (application rate 100 ppm) was 0 % Control. Also, the “% Control RSB” value in test [3] (in vivo) came to 0 % Control. Besides, the “% Control RB” value in the test with Piricularia oryzae (in vivo) stood at 80 % Control.
With `CCCCCCCCNC(=O)/C=C\SC(=O)c1cc(Cl)cc(Cl)c1` [Compound 54, N-octyl-cis-3-[(3,5-dichlorobenzoyl)thio]acrylamide], the minimum inhibitory concentration (MIC) in the test with Pseudomonas fluorescens was over 250 mg/L. Moreover, the pest or weed control at 100 ppm in test [1] is 0%; in test [2], 0%; in the test on Phytophthora infestans (read-out: % Control TLB), 85%; in test [3], 0%.
For `CCCCCCCCNC(=O)/C=C\SC(=O)CCCCCCCCCCC#N` [Compound 58, N-octyl-cis-3-[(11-cyanoundecanoyl)thio]acrylamide], the minimum inhibitory concentration (MIC) with Pseudomonas fluorescens was over 250 mg/L. Moreover, the pest or weed control at 200 ppm in test [1] worked out at 0%; in test [2], 0%; in the test with Phytophthora infestans, 0%; in test [3], 50%.
Regarding `CCCCCCCCNC(=O)/C=C\SC(=O)COCC` [Compound 60, N-octyl-cis-3-(ethoxyacetylthio)acrylamide], the MIC in the test on Pseudomonas fluorescens is over 250 mg/L. In addition, the pest or weed control at 200 ppm is 25% in test [1]; 0% in test [2]; 95% in the test with Phytophthora infestans; 0% in test [3]; 50% in the test with Piricularia oryzae (Pyricularia oryzae, read-out: % Control RB, application rate 200 ppm).
